In ChEMBL document CHEMBL1135579, “Serine-threonine protein phosphatase inhibitors: development of potential therapeutic strategies” (J Med Chem, 2002):
pIC50: −log10 of the molar value. Numbered stars: 1 amine (or outer) side, 2 acyl side, 3 side chain; on linkers, the order of the positions; unused ones are H or OH. Bridge positions count the residues as written; N and C are the ends. Square brackets hold non-standard residues; d marks the D form. Peptide text beside a SMILES is read from it. Adda = CO[C@@H](Cc1ccccc1)[C@@H](C)/C=C(C)/C=C/[C@H](N[*:1])[C@H](C)C(=O)[*:2]; dAsp(3S-Me) = C[C@H](C(=O)[*:3])[C@@H](N[*:1])C(=O)[*:2]; d(γGlu) = O=C(O)[C@@H](CCC(=O)[*:2])N[*:1]; NMeDha = C=C(NC)C(=O)O

How the values were obtained:
HCT-8 = assay: Reduction of tumor cell growth to 50% in Fostriecin analogues in HCT-8 colon cancer cell lines; assay type: functional; details: Homo sapiens
L1210 = assay: Reduction of tumor cell growth to 50% in Fostriecin analogues in L1210 Leukemia cell lines; assay type: functional; details: Mus musculus
[1] = Exogenous inhibition of Serine/threonine protein phosphatase 1 (PP1); parameters: species or system Homo sapiens
[2] = Inhibition of growth after 72 hr continuous exposure to test compounds in Osteosarcoma 143B tumor cell lines; assay type: functional; details: Homo sapiens
[3] = Inhibition of growth after 72 hr continuous exposure to test compounds in Ovarian ADDP tumor cell lines; assay type: functional
[4] = Inhibition of growth after 72 hr continuous exposure to test compounds in Colon HCT 116 tumor cell lines; assay type: functional; details: Homo sapiens, HCT-116, 72 h
[5] = biological target: T1, Serine/threonine-protein phosphatase PP1-gamma catalytic subunit (Homo sapiens, UniProt P36873); assay: Inhibition of Serine/threonine protein phosphatase 1 by anhydride modified Cantharidin analogues
Target sequence in this assay (P36873 whole entry): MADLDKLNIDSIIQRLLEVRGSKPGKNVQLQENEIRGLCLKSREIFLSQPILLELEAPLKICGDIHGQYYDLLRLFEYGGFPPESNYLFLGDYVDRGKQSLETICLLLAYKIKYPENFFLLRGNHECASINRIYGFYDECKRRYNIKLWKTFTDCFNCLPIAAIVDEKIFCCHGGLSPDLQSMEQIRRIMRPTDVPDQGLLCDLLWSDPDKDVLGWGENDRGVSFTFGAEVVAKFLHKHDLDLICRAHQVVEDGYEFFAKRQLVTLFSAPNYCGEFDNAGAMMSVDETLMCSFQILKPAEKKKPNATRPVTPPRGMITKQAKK

[6] = Inhibition of growth after 72 hr continuous exposure to test compounds in Ovarian A2780 tumor cell lines; assay type: functional; details: A2780, 72 h
[7] = Inhibition of growth after 72 hr continuous exposure to test compounds in colon HT-29 tumor cell lines; assay type: functional; details: Homo sapiens, HT-29, 72 h
[8] = Exogenous inhibition concentration of Serine/threonine protein phosphatase 2B (PP2B)
[9] = Exogenous inhibition concentration of Serine/threonine protein phosphatase 2C (PP2C); NI means no inhibition.
[10] = Inhibition of microcystin analogues to catalytic subunits of Serine/threonine protein phosphatase 1C
[11] = biological target: Serine/threonine-protein phosphatase PP1-gamma catalytic subunit (Homo sapiens, UniProt P36873, E275R); assay: Inhibition of Serine/threonine protein phosphatase 1 (PP1) mutants by natural toxins in E275R
[12] = biological target: Serine/threonine-protein phosphatase PP1-gamma catalytic subunit (Homo sapiens, UniProt P36873, Y272F); assay: Inhibition of Serine/threonine protein phosphatase 1 (PP1) mutants by natural toxins in Y272F
[13] = biological target: Serine/threonine-protein phosphatase PP1-gamma catalytic subunit (Homo sapiens, UniProt P36873, D220V); assay: Inhibition of Serine/threonine protein phosphatase 1 (PP1) mutants by natural toxins in D220V
[14] = Exogenous inhibition concentration of Serine/threonine protein phosphatase 4 (PP4)
[15] = biological target: Serine/threonine-protein phosphatase PP1-gamma catalytic subunit (Homo sapiens, UniProt P36873, H248N); assay: Inhibition of Serine/threonine protein phosphatase 1 (PP1) mutants by natural toxins in H248N
[16] = Exogenous inhibition concentration of Serine/threonine protein phosphatase 5 (PP5)
[17] = biological target: Serine/threonine-protein phosphatase PP1-gamma catalytic subunit (Homo sapiens, UniProt P36873, R96A); assay: Inhibition of Serine/threonine protein phosphatase 1 (PP1) mutants by natural toxins in R96A
[18] = biological target: T1, Serine/threonine-protein phosphatase PP1-gamma catalytic subunit; assay: Inhibition of Serine/threonine protein phosphatase 1 (PP1) mutants by natural toxins in wild type
Target sequence in this assay (P36873 2-323 limits assumed, change not shown): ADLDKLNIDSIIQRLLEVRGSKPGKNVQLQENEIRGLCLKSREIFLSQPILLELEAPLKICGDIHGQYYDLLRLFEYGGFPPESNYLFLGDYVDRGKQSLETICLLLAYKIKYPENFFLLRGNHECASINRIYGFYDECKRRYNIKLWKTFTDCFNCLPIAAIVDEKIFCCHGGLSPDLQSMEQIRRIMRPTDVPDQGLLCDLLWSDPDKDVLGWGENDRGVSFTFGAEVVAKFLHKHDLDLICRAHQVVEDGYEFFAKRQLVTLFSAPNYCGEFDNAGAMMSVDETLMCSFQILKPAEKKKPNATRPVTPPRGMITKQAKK

[19] = biological target: Serine/threonine-protein phosphatase PP1-gamma catalytic subunit (Homo sapiens, UniProt P36873, C127S); assay: Inhibition of Serine/threonine protein phosphatase 1 (PP1) mutants by natural toxins in C127S
[20] = biological target: Serine/threonine-protein phosphatase PP1-gamma catalytic subunit (Homo sapiens, UniProt P36873, R221S); assay: Inhibition of Serine/threonine protein phosphatase 1 (PP1) mutants by natural toxins in R221S
[21] = biological target: Serine/threonine-protein phosphatase PP1-gamma catalytic subunit (Homo sapiens, UniProt P36873, N124D); assay: Inhibition of Serine/threonine protein phosphatase 1 (PP1) mutants by natural toxins in N124D
[22] = biological target: Serine/threonine-protein phosphatase PP1-gamma catalytic subunit (Homo sapiens, UniProt P36873, D208A); assay: Inhibition of Serine/threonine protein phosphatase 1 (PP1) mutants by natural toxins in D208A
[23] = Exogenous inhibition concentration of Serine/threonine protein phosphatase 2A (PP2A)
Jurkat [24] = assay: Inhibition of production of beta-galactosidase IL-2 RGA in Jurkat cells; assay type: functional, cell-based; details: Homo sapiens
Jurkat [25] = assay: Inhibition of production of IL-2 secretion in Jurkat cells; assay type: functional, cell-based; details: Homo sapiens
Jurkat [26] = assay: Inhibition of production of beta-galactosidase thymidine kinase RGA in Jurkat cells; assay type: functional, cell-based; details: Homo sapiens

Serine/threonine-protein phosphatase PP1-gamma catalytic subunit (Homo sapiens, UniProt P36873, N124D), sequence (P36873 2-323 N124D limits assumed): as the sequence (P36873 2-323 limits assumed, change not shown) above, with N123D counted along it
Serine/threonine-protein phosphatase PP1-gamma catalytic subunit (Homo sapiens, UniProt P36873, R96A), sequence (P36873 2-323 R96A limits assumed): as the sequence (P36873 2-323 limits assumed, change not shown) above, with R95A counted along it
Serine/threonine-protein phosphatase PP1-gamma catalytic subunit (Homo sapiens, UniProt P36873, D220V), sequence (P36873 2-323 D220V limits assumed): as the sequence (P36873 2-323 limits assumed, change not shown) above, with D219V counted along it
Serine/threonine-protein phosphatase PP1-gamma catalytic subunit (Homo sapiens, UniProt P36873, C127S), sequence (P36873 2-323 C127S limits assumed): as the sequence (P36873 2-323 limits assumed, change not shown) above, with C126S counted along it
Serine/threonine-protein phosphatase PP1-gamma catalytic subunit (Homo sapiens, UniProt P36873, H248N), sequence (P36873 2-323 H248N limits assumed): as the sequence (P36873 2-323 limits assumed, change not shown) above, with H247N counted along it
Serine/threonine-protein phosphatase PP1-gamma catalytic subunit (Homo sapiens, UniProt P36873, R221S), sequence (P36873 2-323 R221S limits assumed): as the sequence (P36873 2-323 limits assumed, change not shown) above, with R220S counted along it
Serine/threonine-protein phosphatase PP1-gamma catalytic subunit (Homo sapiens, UniProt P36873, D208A), sequence (P36873 2-323 D208A limits assumed): as the sequence (P36873 2-323 limits assumed, change not shown) above, with D207A counted along it
Serine/threonine-protein phosphatase PP1-gamma catalytic subunit (Homo sapiens, UniProt P36873, E275R), sequence (P36873 2-323 E275R limits assumed): as the sequence (P36873 2-323 limits assumed, change not shown) above, with E274R counted along it
Serine/threonine-protein phosphatase PP1-gamma catalytic subunit (Homo sapiens, UniProt P36873, Y272F), sequence (P36873 2-323 Y272F limits assumed): as the sequence (P36873 2-323 limits assumed, change not shown) above, with Y271F counted along it

For `C[C@@](O)(/C=C/[C@H]1CC=CC(=O)O1)[C@@H](C[C@@H](O)\C=C/C=C\C=C\CO)OP(=O)(O)O` [FOSTRIECIN], which GI50 (HCT-8) is on record?
Its GI50 is 2.3 µM.

And the GI50 (L1210)?
Its GI50 is 0.21 µM.

And the pIC50 [1]?
Its pIC50 is 3.88.

With `COC1OC(=O)[C@H]2[C@@H]1[C@@H]1CC[C@H]2O1` (stereo partly drawn) as the compound, how does the GI50 [2] read?
Its GI50 is > 1000 µM.

What about the GI50 [3] of the same compound?
The GI50 was 323 µM.

What about the GI50 [4] of the same compound?
The GI50 was 143 µM.

What about the pIC50 [5] of the same compound?
Its pIC50 is < 3.00.

What about the GI50 [6] of the same compound?
Its GI50 is 538 µM.

What about the GI50 [7] of the same compound?
The GI50 was 28 µM.

For `CCCOC1OC(=O)[C@H]2[C@@H]1[C@@H]1CC[C@H]2O1` (stereo partly drawn), which GI50 [2] is on record?
The GI50 was > 1000 µM.

What about the GI50 [3] of the same compound?
Its GI50 is 535 µM.

And the GI50 [4]?
Its GI50 is 195 µM.

What about the GI50 [6] of the same compound?
Its GI50 is 375 µM.

What about the GI50 [7] of the same compound?
Its GI50 is 41 µM.

What does the source list for `CCOC1OC(=O)[C@H]2[C@@H]1[C@@H]1CC[C@H]2O1` (stereo partly drawn)?
GI50 [2]: 103 µM; GI50 [3]: 107 µM; GI50 [4]: 80 µM; GI50 [6]: 100 µM; GI50 [7]: 26 µM

Which results are given for `C[C@@](O)(/C=C/[C@H]1CC=CC(=O)O1)[C@H](O)C[C@@H](O)\C=C/C=C\C=C\CO`?
GI50 (HCT-8): 3.7 µM; GI50 (L1210): 2.5 µM

What does the source list for `C/C=C1/C(=O)C[C@@H](C(=O)O)[C@H](C)C(=O)N[C@@H](C(C)C)C(=O)N[C@@H](/C=C/C(C)=C/[C@H](C)[C@H](Cc2ccccc2)OC)[C@H](C)C(=O)N[C@@H](C(=O)O)CCC(=O)N1C`?
pIC50 [1]: 8.74; pIC50 [8]: 2.06; IC50 [9]: no inhibition

With `COC(=O)C1C(C(=O)O)C2CC[C@H]1O2` (stereo partly drawn) as the compound, how does the GI50 [2] read?
The GI50 was 118 µM.

What about the GI50 [3] of the same compound?
Its GI50 is 180 µM.

And the GI50 [4]?
The GI50 was 76 µM.

And the GI50 [6]?
Its GI50 is 100 µM.

What about the GI50 [7] of the same compound?
The GI50 was 105 µM.

With `CO[C@@H](Cc1ccccc1)[C@@H](C)/C=C(C)/C=C/[C@@H]1NC(=O)[C@H](C)NC(=O)[C@@H](C)[C@H](C(=O)O)CC(=O)[C@H](CC(C)C)NC(=O)[C@@H](C)NC(=O)CN(C2CCCCC2)C(=O)CC[C@H](C(=O)O)NC(=O)[C@H]1C` as the compound, how does the pIC50 [10] read?
Its pIC50 is 9.10.

With `CC[C@@H](C)[C@H]1NC(=O)[C@H]([C@@H](C)CC)NC(=O)[C@H]([C@@H](C)CC)NC(=O)[C@H]([C@@H](C)CC)NC(=O)[C@@H](Cc2ccccc2)NC(=O)[C@H](Cc2ccccc2)NC(=O)[C@@H]2CCCN2C(=O)[C@@H]2CCCN2C(=O)[C@H](C(C)C)NC1=O` as the compound, how does the pIC50 [8] read?
The pIC50 was 5.30.

With `C=C1C(=O)N[C@H](CN)C(=O)N[C@@H](CC(C)C)C(=O)C[C@@H](C(=O)O)[C@H](C)C(=O)N[C@@H](C)C(=O)N[C@@H](/C=C/C(C)=C/[C@H](C)[C@H](Cc2ccccc2)OC)[C@H](C)C(=O)N[C@@H](C(=O)O)CCC(=O)N1C` as the compound, how does the pIC50 [10] read?
The pIC50 was 8.52.

With `C=C1C(=O)N[C@H](C)C(=O)N[C@@H](CC(C)C)C(=O)N[C@@H](C(=O)O)[C@H](C)C(=O)N[C@@H](CCCNC(=N)N)C(=O)N[C@@H](/C=C/C(C)=C/[C@H](C)[C@H](Cc2ccccc2)OC)[C@H](C)C(=O)N[C@@H](C(=O)O)CCC(=O)N1C` [MICROCYSTIN-LR] (R[Adda][d(γGlu)][NMeDha][dA]L[dAsp(3S-Me)]-OH; lactam N-7) as the compound, how does the pIC50 [11] read?
The pIC50 was 11.00.

And the pIC50 [12]?
Its pIC50 is 9.10.

And the pIC50 [13]?
Its pIC50 is 10.70.

What about the pIC50 [14] of the same compound?
The pIC50 was 11.10.

What about the pIC50 [15] of the same compound?
The pIC50 was 7.46.

And the pIC50 [16]?
The pIC50 was < 9.00.

And the pIC50 [17]?
The pIC50 was 7.46.

And the pIC50 [18]?
Its pIC50 is 10.70.

What about the IC50 [9] of the same compound?
The IC50 was “no inhibition”.

And the pIC50 [19]?
The pIC50 was 9.25.

What about the pIC50 [20] of the same compound?
The pIC50 was 7.54.

What about the pIC50 [21] of the same compound?
The pIC50 was 6.70.

And the pIC50 [22]?
Its pIC50 is 8.72.

With `C=C1C(=O)N[C@H](C)C(=O)N[C@@H](CC2CCCCC2)C(=O)C[C@@H](C(=O)O)[C@H](C)C(=O)N[C@@H](C)C(=O)N[C@@H](/C=C/C(C)=C/[C@H](C)[C@H](Cc2ccccc2)OC)[C@H](C)C(=O)N[C@@H](C(=O)O)CCC(=O)N1C` as the compound, how does the pIC50 [10] read?
Its pIC50 is 9.28.

With `C[C@]12C(=O)OC(=O)[C@H]1C1CC[C@H]2O1` [PALASONIN] as the compound, how does the pIC50 [23] read?
The pIC50 was 6.92.

What about the pIC50 [1] of the same compound?
The pIC50 was 6.15.

For `C[C@@]12C(=O)OC(=O)[C@]1(C)[C@H]1CC[C@@H]2O1` [CANTHARIDIN], which GI50 [2] is on record?
The GI50 was 10 µM.

What about the GI50 [3] of the same compound?
Its GI50 is 11 µM.

And the pIC50 [1]?
Its pIC50 is 6.30.

What about the GI50 [4] of the same compound?
Its GI50 is 9 µM.

And the pIC50 [8]?
Its pIC50 is < 3.00.

What about the GI50 [6] of the same compound?
The GI50 was 10 µM.

And the GI50 [7]?
Its GI50 is 6.4 µM.

With `CN(C)C(=O)C1C(C(=O)O)C2CC[C@H]1O2` (stereo partly drawn) as the compound, how does the pIC50 (Jurkat [24]) read?
Its pIC50 is 5.33.

And the pIC50 (Jurkat [25])?
Its pIC50 is 5.30.

What about the pIC50 (Jurkat [26]) of the same compound?
The pIC50 was 4.00.
